The test system of one assay is platelets. The experiment in a line: ADP-induced platelet aggregation (RGD function). The class given is cell-based, human. Conditions: summary of FIG. 3D. As to the method: (§1) Platelet aggregation: Platelet aggregation was measured by the increase in light transmission as described in Lu et al (1994) Biochem J 304: 929-936 and used to identify RGD function. Briefly, platelet rich plasma (PRP) was prepared from citrated human blood from healthy individuals by centrifugation at 200 g for 15 min. Platelets were prepared from PRP by centrifugation at 1200 g for 15 min. The pellets were washed and resuspended in adhesion/aggregation buffer (145 mM NaCl, 5 mM Kcl, 1 mM MgCl2, 2 mM CaCl2, 10 mM glucose, 3.5 mg/ml BSA and 10 mM HEPES, pH 7.35) and adjusted to a count of 3×10^8/ml. Platelet aggregation (320 μl incubations) was induced with 10 μM ADP in the presence of 1.67 mg/ml fibrinogen and measured using a Payton Dual-Aggregometer linked to a chart recorder.

A further assay deals with thrombin (Homo sapiens, UniProt P00734). The experiment in a line: Thrombin-induced fibrinogen clotting time. Type of assay: biochemical. Conditions: summary of FIG. 3D. How it is done: Thrombin-induced fibrinogen clotting time: Thrombin-induced fibrinogen clotting time was determined using an Amelung KC-10 instrument as follows. 50 μl of thrombin (3.3 μg/ml) in 50 mM Tris-HCL, pH7.5, containing 150 mM NaCl and 5 mM CaCl2 was mixed with 10 μl of various concentrations of both modified (Den-TM) and wild type dendroaspin (as a control for comparison). After a 2 min incubation at 37° C., 100 μl of fibrinogen (160 μg/ml) in the same buffer was added to determine the clotting time.
Amidolytic activity of thrombin and clotting of fibrinogen: The amidolytic activity of α-thrombin was performed using the chromogenic substrate S-2238 (Chromogenix) and α-thrombin at a final concentration of 0.06 unit/ml. Thrombin releases p-nitroaniline from the substrate and the rate of this reaction was monitored in microtiter plates at 405 nm using an automated spectrophotometer (Autoreader III, Ortho Diagnostic Systems). The inhibitory effect of Den-HR on thrombin cleavage of the chromogenic substrate was measured at final concentration between nM-mM. […] The time to observe the start of fibrinogen clotting (thrombin time) was measured using an automated coagulometer at 37° C. The effect of mutants on fibrinogen clotting by α-thrombin was determined by substituting the HEPES buffer in the first mixture with mutants at a range of concentrations.

Another assay has as its system washed platelets. The experiment in a line: Thrombin-induced platelet aggregation. The class given is cell-based, human. The following applies: summary of FIG. 3D. How it is done:
as §1
Thrombin-induced platelet aggregation: Thrombin-induced platelet aggregation in washed platelets for both wild-type and mutant dendroaspins were determined as described in Example 3 above, except thrombin was used as an agonist.

The test system of assay [1] is binding of platelets to immobilized fibronectin. The following applies: Lu X et al (1994); cited from earlier work.
The subject of assay [2] is platelet adhesion to fibrinogen. The following applies: Lu X et al (1994); cited from earlier work.

With “SEQ ID NO:46: dendroaspin carrying the thrombomodulin-binding sequence of the B-chain of human thrombin; bifunctional molecule (RICFTPRGDMPGPYPGPCQEDSCYKNIWTFDNIIRRGPGPTWTANVGKGQPS)”, the “inhibition of ADP-induced platelet aggregation” value with platelets is listed as “inhibits”. In addition, the thrombin clotting time entry in the assay with thrombin was “delay”. Also, in the assay on washed platelets, the “inhibition of thrombin-induced platelet aggregation” value was “inhibits”.
Take kistrin: the “inhibition of binding of platelets to immobilized fibronectin” value in assay [1] was “poor antagonists”. Also, the “inhibition of platelet adhesion to fibrinogen” value in assay [2] is listed as “potent inhibitors”.

B1: SEQ ID NO:43: modified dendroaspin with hirudin domain grafted into loops I and II (protein)
chain: RICFTPRGDMPGPYPGPCQEDSCYKNIWTFDNIIRRGCGCFTPRGDMPGPYFPRPQSHNDGDFEEIPEEYLQ
As for B1, the “inhibition of ADP-induced platelet aggregation” value in the assay on platelets is reported as “inhibits”. The thrombin clotting time entry in the assay with thrombin is reported as “delays”. Also, the “inhibition of thrombin-induced platelet aggregation” value in the assay with washed platelets is “inhibits”.

Source of the values: patent US6451976B1, “Bi-or multifunctional molecules based on a dendroaspin scaffold” (Trigen Limited, priority 1997, dated 2002).
